Read-outs that look alike come from different tables or passages of the source.
How the values were obtained:
[1] = system: TNFα secretion in RAW 264.7 macrophages; experiment: TNFα release assay in RAW 264.7 macrophages stimulated with LPS; format: cell-based, mouse
Protocol: The purpose of this assay is to measure the ability of small molecules to inhibit the secretion of TNFα in cultured macrophages stimulated with lipopolysaccharide (LPS). […] Dexamethasone, a potert agonist of the glucocorticoid receptor is used a positive control for inhibition of TNFα release.
Day 1: Seed RAW 264.7 macrophages into 96 well culture plates. Remove culture media from RAW 264.7 cell growing in a 75 mm^2 tissue culture flask (cells should be at ˜70% confluence) and add 10 mL of warmed complete growth media (DMEM+10% FBS+1× pen/step). The cells are scraped into suspension using a sterile plate scraper and homogenized by pipetting up and down with a 10 mL serological pipette. The cell concentration is determined using a clinical hematoctyometer. Cells are then diluted to 150,000 cells per mL into growth media. […]
Day 2: The test compound sample plate is prepared. […] Add 100 μl of Celltiter-glo reagent to each well of the cell culture plate and afterwards measure the luminescence signal (CPS) of the plate using the Victor 5 plate reader (0.3 second read; 60 second plate shaking prior to read). […]
Use 20 μl of media supernatant per well for TNFα ELISA. […] After addition of stop solution, measure OD 450 nm using the Victor 5 plate reader (0.1 second/well scan). […]

NFκB = experiment: NFκB-driven luciferase reporter in RAW 264.7 cells challenged with LPS; format: cell-based, mouse; conditions: read-out: NFκB Inhibitory Activity, IC50 μM
Protocol: RAW 264.7 cells transfected with an NFκB-driven luciferase reporter are plated in 96 well plates. Cells are treated with Vehicle (0.1% ethanol) or test compounds for 2 hours. As a positive control for inhibition of NFκB signaling, 6 wells are treated with 10 μM dexamethasone. Cells are then challenged with 200 ng/mL LPS for 3 hours in the presence of test compounds. A subset of wells treated with vehicle should remain unstimulated with LPS to determine the floor signal of the assay. NFκB driven luciferase activity is developed by addition of BriteLite luciferase kit (Perkin-Elmer) and measured using a Victor V plate reader. NFκB activity (luciferase activity) for each treatment was normalized to Vehicle wells treated with LPS (% NFκB Response). AlamarBlue was used to monitor cell viability to ensure that inhibition of luciferase signal was not a result of compound cytotoxicity.
RAW 264.7 cells stably expressing a 3×NF-κB response element-driven luciferase reporter were seeded into 96 well plates. After 18 hours, cells were pre-treated with compounds of the invention for 2 hours, and then stimulated with LPS (lipopolysaccharide, 200 ng/mL) or vehicle control for 3 h in the presence of the compounds of the invention. A set of six vehicle was left unstimulated with LPS in order to measure the assay floor. AlamarBlue viability dye (Invitrogen) was added to cells simultaneously with the delivery of LPS (final AlamarBlue concentration of 10%). After the 3 h incubation period with LPS, cell viability was measured by reading fluorescence (excitation 550 nm, emission 595 nm) with a Perkin Elmer Victor V plate reader. Then cell media was aspirated from each well. Luciferase signal was then developed by addition of the Britelite Plus reagent (Perkin Elmer). Luciferase activity was measured with the Perkin Elmer Victor V plate reader. NF-κB activity was expressed as a percent of the vehicle control wells (stimulated with LPS). Compounds were tested at 6 dose point titrations in triplicate to determine IC50 values.

[2] = Mus musculus, RAW264.7, 200 ng/mL LPS for 3 hours

Row | IC50 (NFκB; [2]) [µM] | Structure (SMILES) | other results
1 |  | CC/C=C\C/C=C\C/C=C\C/C=C\C/C=C\C/C=C\CCC(=O)Nc1ccc(O)c(C(=O)O)c1 [III-1] | IC50 ([1]; 10 ng/mL LPS, 3 hours, TNFα ELISA, read-out: TNFα Secrection, IC50 μM): 146 µM; IC50 (NFκB; 200 ng/mL LPS for 3 hours): < 200 µM
2 | < 200 | CC/C=C\C/C=C\C/C=C\C/C=C\C/C=C\C/C=C\CCC(=O)NC(CC(C)C)C(=O)Oc1cc(C(F)(F)F)ccc1C(=O)OCC (stereo not drawn) [Ii-5, ethyl 2-(2-(4Z,7Z,10Z,13Z,16Z,19Z)-docosa-4,7,10,13,16,19-hexaenamido-4-methylpentanoyloxy)-4-(trilluoromethyl)benzoate] | 
3 | < 200 | CC/C=C\C/C=C\C/C=C\C/C=C\C/C=C\C/C=C\CCC(=O)Oc1cc(C(F)(F)F)ccc1C(=O)OCC [VIc-3, ethyl 2-((4Z,7Z,10Z,13Z,16Z,19Z)-docosa-4,7,10,13,16,19-hexaenoyloxy)-4-(trilluoromethyl)benzoate] | 
4 |  | O=C(O)c1ccccc1O [salicylate, Salicylate] | inhibition of the production of TNFα (in words, FIG. 2) ([1]; LPS): do not appreciably inhibit

Row | Structure (SMILES) | IC50 (NFκB; [2]) [µM] | other results
5 | O=C(O)c1ccccc1O [SA, salicylic acid, reference compound] | > 200 | 
